Experimental data from US10280170B2, “Substituted 4,5,6,7-tetrahydro-pyrazolo[1,5-a]pyrazine derivatives and 5,6,7,8-tetrahydro-4H-pyrazolo[1,5-a][1,4]diazepine derivatives as Ros1 inhibitors” (Janssen Pharmaceutica NV, priority 2014, dated 2019).
Where two headings read alike, the source gives them in different places.

How the values were obtained:
[1] = system: HCC78 non-small cell lung cancer cells; assay: HCC78 cell proliferation assay; assay type: cell-based; conditions: Homo sapiens, HCC78, 96 h, read-out: HCC-78 PROL pEC50 (converted)
Summary of the method: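 HCC78 NSCLC cells (~1000/well) in RPMI-1640 with 10% FBS were treated 24 h after seeding and exposed to compound for 4 days at 37 °C. Viability was read by MTT, with absorbance at 538 nm after DMSO/glycine solubilization.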

[2] = biological target: Ba/F3 cells containing Ros1 with a mutation at the gatekeeper residue (L2026M) (Homo sapiens, UniProt P08922, L2026M, cells depend on it, form not given); assay: Ba/F3-Ros1 cell proliferation assay, L2026M gatekeeper mutant; assay type: cell-based, murine; conditions: without IL-3
Summary of the method: (§1)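 Ba/F3 cells expressing wild-type, L2026M or G2032R Ros1 (20000 per well) were incubated with DMSO-solubilized compounds in phenol red-free RPMI-1640 with 10% FBS and 2 mM L-glutamine at 37 °C, 5% CO2 for 24 hours. Viability was then read by Alamar Blue fluorescence (ex 540/em 590 nm) after 4 h.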

Ros1 enzyme = biological target: T1, Ros1 enzyme (Homo sapiens, UniProt P08922); assay: Ros1 enzymatic assay; assay type: biochemical; conditions: Ros1 enzymatic assay; read-out: ROS1 pIC50 (converted)
T1 construct: 0.5 μg/ml Ros1 enzyme
Summary of the method: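 Ros1 (0.5 μg/ml in enzyme mix) was combined with a substrate mix of biotinylated IRS-Tide (6 μg/ml) and 20 μM ATP spiked with 33P-ATP in 50 mM Tris-HCl pH7.5, 10 mM MgCl2, 1 mM EGTA, 0.01% Tween-20. Reaction ran 120 min at room temperature before EDTA stop.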

[3] = system: Ros pY2274 in HCC78 cells; assay: pROS1 immunofluorescence assay in HCC78 cells; assay type: cell-based; conditions: Homo sapiens, read-out: HCC78-pRos1 pIC50 (converted)
Summary of the method: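 HCC78 NSCLC cells treated with compound for 4 h at 37 °C, then fixed and immunostained for ROS1 pY2274 (Alexa Fluor 680, read at 700 nm). Total ROS1 stained in parallel (IRDye800cw, 800 nm) and used to normalize phospho signal.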

[4] = biological target: Ba/F3 cells containing Ros1 with G2032R mutation (Homo sapiens, UniProt P08922, G2032R, cells depend on it, form not given); assay: Ba/F3-Ros1 cell proliferation assay, G2032R crizotinib-resistance mutant; assay type: cell-based, murine; conditions: without IL-3
Procedure: Ba/F3-Ros1 Cell Proliferation Assay
This assay was carried out with Ba/F3 cells containing three different versions of Ros1: the wild-type protein, protein with a mutation at the gatekeeper residue (L2026M), and protein with a mutation identified in a tumor from a patient that became resistant to crizotinib (Xalkori®) treatment (G2032R). Compounds were solubilized in 100% DMSO (dimethyl sulfoxide) and sprayed into polystyrene, tissue culture treated 384-well plates. A 50 μl volume of cell culture medium (phenol red free RPMI-1640, 10% FBS (fetal bovine serum), 2 mM L-Glutamine) containing 20000 Ba/F3-Ros1 cells was added to each well and the plates were placed in an incubator at 37° C. and 5% CO2. After 24 hours, 10 μl of Alamar Blue solution (0.5 mM K3Fe(CN)6, 0.5 mM K4Fe(CN)6, 0.15 mM Resazurin and 100 mM Phosphate Buffer) was added to the wells, incubated for 4 hours at 37° C. and 5% CO2 before RFU's (Relative Fluorescence Units) (ex. 540 nm., em. 590 nm.) were measured in a fluorescence plate reader.

[5] = biological target: T2, Ba/F3 cells containing Ros1 wild-type protein (Homo sapiens, UniProt P08922, cells depend on it, form not given); assay: Ba/F3-Ros1 cell proliferation assay, wild-type Ros1; assay type: cell-based, murine; conditions: without IL-3
T2 construct: The background only speaks of 'a number of different unrelated proteins' and names SLC34A2-ROS1 for HCC78 cells
Summary of the method: as §1

[6] = system: Ba/F3 cells containing Ros1 wild-type protein + IL-3; assay: Ba/F3-Ros1 cell proliferation counter-screen, wild-type protein in the presence of 10 ng/ml murine IL-3; assay type: cell-based; conditions: Mus musculus, BaF3, 24 h, read-out: BaF3-ROS1 + IL3 pIC50 (converted)
Summary of the method: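 Ba/F3 cells expressing wild-type Ros1 were grown with 10 ng/ml murine IL-3 and test compound in RPMI-1640 with 10% FBS and 2 mM L-glutamine for 24 h at 37 °C, 5% CO2. Viability was then read as Alamar Blue (resazurin) fluorescence (ex 540/em 590 nm) after 4 h further incubation.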

[7] = HCC78 cells, 4 hours, Ros pY2274 normalized to total Ros1
[8] = counter-screen, wild-type, 10 ng/ml murine IL-3

Sequence of Ba/F3 cells containing Ros1 with a mutation at the gatekeeper residue (L2026M) (P08922 whole entry L2026M, form open): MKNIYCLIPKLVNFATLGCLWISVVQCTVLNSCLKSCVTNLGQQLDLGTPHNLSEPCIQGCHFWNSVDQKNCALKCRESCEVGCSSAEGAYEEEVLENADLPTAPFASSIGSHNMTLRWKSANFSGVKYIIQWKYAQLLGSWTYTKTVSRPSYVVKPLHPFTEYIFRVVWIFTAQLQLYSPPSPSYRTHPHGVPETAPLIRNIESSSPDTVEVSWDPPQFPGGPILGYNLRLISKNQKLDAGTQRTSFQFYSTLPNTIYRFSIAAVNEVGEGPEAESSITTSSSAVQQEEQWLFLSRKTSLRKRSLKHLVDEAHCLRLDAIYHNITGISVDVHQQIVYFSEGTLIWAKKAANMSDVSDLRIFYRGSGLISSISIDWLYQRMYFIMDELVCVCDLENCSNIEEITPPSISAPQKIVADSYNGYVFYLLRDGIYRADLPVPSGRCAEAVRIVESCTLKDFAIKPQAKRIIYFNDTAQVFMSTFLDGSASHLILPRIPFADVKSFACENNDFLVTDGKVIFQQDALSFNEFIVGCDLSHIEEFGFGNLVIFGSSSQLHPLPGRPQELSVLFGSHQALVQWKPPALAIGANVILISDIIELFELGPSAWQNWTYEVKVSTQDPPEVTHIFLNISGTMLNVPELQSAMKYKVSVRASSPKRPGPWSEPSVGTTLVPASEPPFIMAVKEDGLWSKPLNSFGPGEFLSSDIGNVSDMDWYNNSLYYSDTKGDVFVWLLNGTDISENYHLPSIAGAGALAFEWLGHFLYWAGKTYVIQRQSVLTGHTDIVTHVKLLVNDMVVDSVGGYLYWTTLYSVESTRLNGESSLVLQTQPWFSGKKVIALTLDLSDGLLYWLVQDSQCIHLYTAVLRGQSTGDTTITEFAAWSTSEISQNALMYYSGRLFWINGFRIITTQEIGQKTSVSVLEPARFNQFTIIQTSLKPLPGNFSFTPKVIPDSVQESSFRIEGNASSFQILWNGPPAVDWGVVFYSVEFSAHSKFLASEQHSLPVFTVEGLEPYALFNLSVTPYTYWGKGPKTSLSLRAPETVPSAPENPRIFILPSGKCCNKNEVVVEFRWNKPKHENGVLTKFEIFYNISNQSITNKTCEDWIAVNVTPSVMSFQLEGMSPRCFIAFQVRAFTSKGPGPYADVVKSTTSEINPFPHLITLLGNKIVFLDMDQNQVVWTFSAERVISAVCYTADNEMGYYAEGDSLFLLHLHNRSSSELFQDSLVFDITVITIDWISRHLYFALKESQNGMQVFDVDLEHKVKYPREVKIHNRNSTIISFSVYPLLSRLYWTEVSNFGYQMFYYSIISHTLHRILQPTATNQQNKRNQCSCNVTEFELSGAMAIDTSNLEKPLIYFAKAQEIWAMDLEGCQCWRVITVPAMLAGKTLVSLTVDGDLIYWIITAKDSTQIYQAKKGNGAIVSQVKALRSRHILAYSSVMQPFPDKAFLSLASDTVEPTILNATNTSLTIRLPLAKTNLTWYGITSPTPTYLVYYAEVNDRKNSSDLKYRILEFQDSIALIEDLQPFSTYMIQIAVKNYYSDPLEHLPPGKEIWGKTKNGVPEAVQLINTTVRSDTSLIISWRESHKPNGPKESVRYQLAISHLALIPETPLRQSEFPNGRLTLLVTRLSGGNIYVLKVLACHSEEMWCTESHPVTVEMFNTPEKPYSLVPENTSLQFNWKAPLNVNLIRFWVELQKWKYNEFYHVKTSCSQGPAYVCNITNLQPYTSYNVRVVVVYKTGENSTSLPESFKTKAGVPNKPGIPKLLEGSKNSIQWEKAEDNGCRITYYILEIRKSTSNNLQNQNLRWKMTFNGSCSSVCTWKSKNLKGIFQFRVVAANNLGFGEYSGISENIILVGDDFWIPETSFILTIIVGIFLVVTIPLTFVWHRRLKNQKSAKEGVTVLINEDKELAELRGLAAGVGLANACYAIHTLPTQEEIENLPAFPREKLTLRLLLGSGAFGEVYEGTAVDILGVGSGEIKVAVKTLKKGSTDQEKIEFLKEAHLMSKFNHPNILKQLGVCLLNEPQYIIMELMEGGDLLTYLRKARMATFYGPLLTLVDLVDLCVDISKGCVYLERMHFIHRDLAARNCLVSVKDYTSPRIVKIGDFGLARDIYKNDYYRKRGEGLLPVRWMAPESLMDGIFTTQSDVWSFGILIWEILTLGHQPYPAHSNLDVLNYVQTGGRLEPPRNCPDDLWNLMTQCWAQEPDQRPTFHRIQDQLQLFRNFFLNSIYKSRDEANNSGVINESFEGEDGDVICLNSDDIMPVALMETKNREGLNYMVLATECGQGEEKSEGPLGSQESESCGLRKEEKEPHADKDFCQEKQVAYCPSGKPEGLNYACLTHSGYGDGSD
Sequence of Ba/F3 cells containing Ros1 with G2032R mutation (P08922 whole entry G2032R, form open): as the sequence (P08922 whole entry L2026M, form open) above, with M2026L, G2032R counted along it
T2 sequence (P08922 whole entry, stated change not applied): as the sequence (P08922 whole entry L2026M, form open) above, with M2026L counted along it
T1 sequence (P08922 28-2347): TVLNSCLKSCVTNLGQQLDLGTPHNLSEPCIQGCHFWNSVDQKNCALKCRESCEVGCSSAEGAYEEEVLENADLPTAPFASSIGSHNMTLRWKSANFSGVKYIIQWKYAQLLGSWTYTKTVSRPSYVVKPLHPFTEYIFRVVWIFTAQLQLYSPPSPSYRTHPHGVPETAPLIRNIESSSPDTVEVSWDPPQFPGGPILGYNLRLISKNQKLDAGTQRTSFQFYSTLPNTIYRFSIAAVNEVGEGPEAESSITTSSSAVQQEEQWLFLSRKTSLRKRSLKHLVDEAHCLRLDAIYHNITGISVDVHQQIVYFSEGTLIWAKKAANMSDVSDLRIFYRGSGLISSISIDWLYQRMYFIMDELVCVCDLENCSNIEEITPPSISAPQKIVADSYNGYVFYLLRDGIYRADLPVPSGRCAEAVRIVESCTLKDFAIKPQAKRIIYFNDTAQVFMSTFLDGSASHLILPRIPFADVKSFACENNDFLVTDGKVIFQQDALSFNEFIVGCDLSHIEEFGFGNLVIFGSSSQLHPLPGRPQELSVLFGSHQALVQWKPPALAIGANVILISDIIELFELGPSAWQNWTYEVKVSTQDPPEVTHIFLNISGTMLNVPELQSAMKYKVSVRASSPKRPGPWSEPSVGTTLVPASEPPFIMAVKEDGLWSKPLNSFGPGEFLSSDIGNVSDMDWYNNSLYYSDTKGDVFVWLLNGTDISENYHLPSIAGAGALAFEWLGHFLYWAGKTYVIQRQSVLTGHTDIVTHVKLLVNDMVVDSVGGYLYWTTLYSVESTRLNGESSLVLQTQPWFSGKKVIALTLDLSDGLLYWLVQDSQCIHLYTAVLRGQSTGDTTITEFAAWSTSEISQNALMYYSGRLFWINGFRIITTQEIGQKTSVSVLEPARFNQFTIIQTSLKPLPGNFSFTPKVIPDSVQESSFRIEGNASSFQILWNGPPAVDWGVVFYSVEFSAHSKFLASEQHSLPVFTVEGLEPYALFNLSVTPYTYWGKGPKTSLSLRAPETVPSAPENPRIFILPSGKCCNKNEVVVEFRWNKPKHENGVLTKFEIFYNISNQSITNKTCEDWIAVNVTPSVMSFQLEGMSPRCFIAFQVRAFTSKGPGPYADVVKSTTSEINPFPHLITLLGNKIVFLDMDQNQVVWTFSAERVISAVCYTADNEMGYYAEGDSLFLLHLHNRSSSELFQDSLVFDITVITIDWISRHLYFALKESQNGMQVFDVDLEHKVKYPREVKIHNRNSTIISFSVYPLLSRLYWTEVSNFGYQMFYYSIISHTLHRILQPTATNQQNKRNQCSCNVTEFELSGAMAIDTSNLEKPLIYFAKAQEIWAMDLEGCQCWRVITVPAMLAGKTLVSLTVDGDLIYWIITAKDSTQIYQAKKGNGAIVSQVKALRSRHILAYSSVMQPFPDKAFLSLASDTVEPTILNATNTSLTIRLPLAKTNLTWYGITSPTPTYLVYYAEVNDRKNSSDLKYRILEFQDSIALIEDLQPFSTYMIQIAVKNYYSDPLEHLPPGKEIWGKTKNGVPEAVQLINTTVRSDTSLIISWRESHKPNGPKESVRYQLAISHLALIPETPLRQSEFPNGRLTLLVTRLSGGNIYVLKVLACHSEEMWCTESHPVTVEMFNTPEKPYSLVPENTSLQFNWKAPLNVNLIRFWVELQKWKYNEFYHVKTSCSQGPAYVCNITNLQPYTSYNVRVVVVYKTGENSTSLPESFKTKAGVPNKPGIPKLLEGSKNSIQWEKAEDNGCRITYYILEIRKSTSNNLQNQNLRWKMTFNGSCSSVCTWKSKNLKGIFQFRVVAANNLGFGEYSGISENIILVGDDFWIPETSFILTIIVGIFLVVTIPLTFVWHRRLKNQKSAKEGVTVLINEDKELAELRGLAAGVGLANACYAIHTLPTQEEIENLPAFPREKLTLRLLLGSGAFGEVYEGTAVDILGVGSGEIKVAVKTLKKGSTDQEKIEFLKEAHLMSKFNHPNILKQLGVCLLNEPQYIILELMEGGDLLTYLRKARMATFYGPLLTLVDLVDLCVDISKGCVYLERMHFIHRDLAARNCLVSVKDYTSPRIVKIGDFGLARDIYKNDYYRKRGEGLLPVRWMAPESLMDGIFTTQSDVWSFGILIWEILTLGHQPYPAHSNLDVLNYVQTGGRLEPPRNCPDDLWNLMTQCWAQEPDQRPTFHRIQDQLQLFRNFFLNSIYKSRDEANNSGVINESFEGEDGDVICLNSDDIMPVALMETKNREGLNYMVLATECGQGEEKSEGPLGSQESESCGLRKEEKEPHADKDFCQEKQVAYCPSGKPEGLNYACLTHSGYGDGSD

Row | EC50 ([1]; HCC78 cells, 4 days, MTT) | SMILES | EC50 [1] | Ba/F3 Ros1 L2026M (-IL-3) pIC50 [2] | IC50 (Ros1 enzyme) | melting point | IC50 ([3]; HCC78, 4 h) | Ba/3 Ros1 G2032R (-IL-3) pIC50 [4] | BaF3-ROS1-IL3 pIC50 [5] | CC50 [6] | IC50 [3, 7] | CC50 [6, 8]
1 |  | CC(C)c1ccc(COc2ccc(-c3c(-c4ccncc4)nn4c3C(=O)NCC4)cn2)cc1 [Compound 71] | 100 nM | 7.6 | 25.1 nM | 199 °C | 39.8 nM | 7.0 | 7.7 | > 10000 nM |  | 
2 |  | O=C1NCCn2nc(-c3ccncc3)c(-c3ccc(OCc4ccc(OC(F)(F)F)cc4)cc3)c21 [Compound 116] | 251 nM | 7.3 | 126 nM | 260 °C | 158 nM | 6.6 | 7.3 | > 10000 nM |  | 
3 | 501 nM | CN1CCn2nc(-c3ccncc3)c(-c3ccc(OCc4ccc(C5CC5)nc4)cc3)c2C1=O [Compound 138] |  | 6.8 | 100 nM | 175 °C |  | 6.0 | 6.9 |  | 316 nM | > 10000 nM
4 | 794 nM | CNC(=O)CN1CCn2nc(-c3ccncc3)c(-c3ccc(OCc4ccc(C(C)C)cc4)cc3)c2C1 [Compound 174] |  | 6.8 | 200 nM | 185 °C |  | 6.4 | 6.8 |  | 251 nM | > 10000 nM
